{"source": "ChEMBL document CHEMBL3885881", "about": "“DrugMatrix”", "species_on_record": "Rattus norvegicus", "experiment": "DrugMatrix - Regimen: Daily Repeat", "assay_type": "toxicity, organism-based, Sprague-Dawley", "parameters": "regimen Daily Repeat, gender Male, age 6-8 weeks", "conditions": "in vivo, po, 1200 mg/kg, route oral GAVAGE, dose level High, vehicle .5 % CMC; for ABSOLUTE BASOPHIL / ABSOLUTE EOSINOPHIL / ABSOLUTE LYMPHOCYTE / ABSOLUTE MONOCYTE / ABSOLUTE SEGMENTED NEUTROPHIL / BASOPHIL / EOSINOPHIL / ERYTHROCYTE COUNT / HEMATOCRIT / HEMOGLOBIN / LEUKOCYTE COUNT / LYMPHOCYTE / MEAN CORPUSCULAR HEMOGLOBIN / MEAN CORPUSCULAR HEMOGLOBIN CONCENTRATION / MEAN CORPUSCULAR VOLUME / MONOCYTE / NEUTROPHIL / NUCLEATED RED BLOOD CELLS / PLATELET COUNT: tissue Blood; for ALANINE AMINOTRANSFERASE / ALBUMIN / ALKALINE PHOSPHATASE / ASPARTATE AMINOTRANSFERASE / BLOOD UREA NITROGEN / CARBON DIOXIDE / CHLORIDE / CHOLESTEROL / CREATINE PHOSPHOKINASE / CREATININE / GLUCOSE / LACTATE DEHYDROGENASE / LIPASE / PHOSPHORUS / POTASSIUM / SODIUM / TOTAL BILIRUBIN / TOTAL PROTEIN / URIC ACID: tissue Plasma"}
{"smiles": "O=C(C1CCCCC1)N1CC(=O)N2CCc3ccccc3C2C1", "note": "(stereo unspecified) [PRAZIQUANTEL]", "values": [{"measurement": "ABSOLUTE BASOPHIL", "setting": "72 h, time 3 day", "value": 0, "unit": "CELLS/uL"}, {"measurement": "ABSOLUTE EOSINOPHIL", "setting": "72 h, time 3 day", "value": 48, "unit": "CELLS/uL"}, {"measurement": "ABSOLUTE LYMPHOCYTE", "setting": "72 h, time 3 day", "value": 14636, "unit": "CELLS/uL"}, {"measurement": "ABSOLUTE MONOCYTE", "setting": "72 h, time 3 day", "value": 440, "unit": "CELLS/uL"}, {"measurement": "ABSOLUTE SEGMENTED NEUTROPHIL", "setting": "72 h, time 3 day", "value": 1476, "unit": "CELLS/uL"}, {"measurement": "BASOPHIL", "setting": "72 h, time 3 day", "value": 0, "unit": "%"}, {"measurement": "EOSINOPHIL", "setting": "72 h, time 3 day", "value": 0.33, "unit": "%"}, {"measurement": "ERYTHROCYTE COUNT", "setting": "72 h, time 3 day", "value": 6.1, "unit": "x10E6/uL"}, {"measurement": "HEMATOCRIT", "setting": "72 h, time 3 day", "value": 37.8, "unit": "%"}, {"measurement": "HEMOGLOBIN", "setting": "72 h, time 3 day", "value": 14.07, "unit": "G/DL"}, {"measurement": "LEUKOCYTE COUNT", "setting": "72 h, time 3 day", "value": 16.6, "unit": "x10E3/uL"}, {"measurement": "LYMPHOCYTE", "setting": "72 h, time 3 day", "value": 88, "unit": "%"}, {"measurement": "MEAN CORPUSCULAR HEMOGLOBIN", "setting": "72 h, time 3 day", "value": 23.1, "unit": "pg"}, {"measurement": "MEAN CORPUSCULAR HEMOGLOBIN CONCENTRATION", "setting": "72 h, time 3 day", "value": 37.23, "unit": "G/DL"}, {"measurement": "MEAN CORPUSCULAR VOLUME", "setting": "72 h, time 3 day", "value": 62.03, "unit": "fL"}, {"measurement": "MONOCYTE", "setting": "72 h, time 3 day", "value": 2.67, "unit": "%"}, {"measurement": "NEUTROPHIL", "setting": "72 h, time 3 day", "value": 9, "unit": "%"}, {"measurement": "NUCLEATED RED BLOOD CELLS", "setting": "72 h, time 3 day", "value": "0 /100WBC"}, {"measurement": "PLATELET COUNT", "setting": "72 h, time 3 day", "value": 1207, "unit": "x10E3/uL"}, {"measurement": "ALANINE AMINOTRANSFERASE", "setting": "72 h, time 3 day", "value": 78.33, "unit": "u/L"}, {"measurement": "ALBUMIN", "setting": "72 h, time 3 day", "value": 4.17, "unit": "G/DL"}, {"measurement": "ALKALINE PHOSPHATASE", "setting": "72 h, time 3 day", "value": 420.67, "unit": "u/L"}, {"measurement": "ASPARTATE AMINOTRANSFERASE", "setting": "72 h, time 3 day", "value": 106, "unit": "u/L"}, {"measurement": "BLOOD UREA NITROGEN", "setting": "72 h, time 3 day", "value": 16.67, "unit": "mg/dL"}, {"measurement": "CARBON DIOXIDE", "setting": "72 h, time 3 day", "value": 21.67, "unit": "mmol/L"}, {"measurement": "CHLORIDE", "setting": "72 h, time 3 day", "value": 106, "unit": "MEQ/L"}, {"measurement": "CHOLESTEROL", "setting": "72 h, time 3 day", "value": 113, "unit": "mg/dL"}, {"measurement": "CREATINE PHOSPHOKINASE", "setting": "72 h, time 3 day", "value": 468, "unit": "u/L"}, {"measurement": "CREATININE", "setting": "72 h, time 3 day", "value": 0.27, "unit": "mg/dL"}, {"measurement": "GLUCOSE", "setting": "72 h, time 3 day", "value": 155.33, "unit": "mg/dL"}, {"measurement": "LACTATE DEHYDROGENASE", "setting": "72 h, time 3 day", "value": 155.67, "unit": "u/L"}, {"measurement": "LIPASE", "setting": "72 h, time 3 day", "value": 12.33, "unit": "u/L"}, {"measurement": "PHOSPHORUS", "setting": "72 h, time 3 day", "value": 12.53, "unit": "mg/dL"}, {"measurement": "POTASSIUM", "setting": "72 h, time 3 day", "value": 6.11, "unit": "MEQ/L"}, {"measurement": "SODIUM", "setting": "72 h, time 3 day", "value": 146.03, "unit": "MEQ/L"}, {"measurement": "TOTAL BILIRUBIN", "setting": "72 h, time 3 day", "value": 0.17, "unit": "mg/dL"}, {"measurement": "TOTAL PROTEIN", "setting": "72 h, time 3 day", "value": 5.9, "unit": "G/DL"}, {"measurement": "URIC ACID", "setting": "72 h, time 3 day", "value": 1.8, "unit": "mg/dL"}, {"measurement": "ABSOLUTE BASOPHIL", "setting": "120 h, time 5 day", "value": 0, "unit": "CELLS/uL"}, {"measurement": "ABSOLUTE EOSINOPHIL", "setting": "120 h, time 5 day", "value": 0, "unit": "CELLS/uL"}, {"measurement": "ABSOLUTE LYMPHOCYTE", "setting": "120 h, time 5 day", "value": 15049.33, "unit": "CELLS/uL"}, {"measurement": "ABSOLUTE MONOCYTE", "setting": "120 h, time 5 day", "value": 624, "unit": "CELLS/uL"}, {"measurement": "ABSOLUTE SEGMENTED NEUTROPHIL", "setting": "120 h, time 5 day", "value": 1126.67, "unit": "CELLS/uL"}, {"measurement": "BASOPHIL", "setting": "120 h, time 5 day", "value": 0, "unit": "%"}, {"measurement": "EOSINOPHIL", "setting": "120 h, time 5 day", "value": 0, "unit": "%"}, {"measurement": "ERYTHROCYTE COUNT", "setting": "120 h, time 5 day", "value": 6.07, "unit": "x10E6/uL"}, {"measurement": "HEMATOCRIT", "setting": "120 h, time 5 day", "value": 37.33, "unit": "%"}, {"measurement": "HEMOGLOBIN", "setting": "120 h, time 5 day", "value": 14, "unit": "G/DL"}, {"measurement": "LEUKOCYTE COUNT", "setting": "120 h, time 5 day", "value": 16.8, "unit": "x10E3/uL"}, {"measurement": "LYMPHOCYTE", "setting": "120 h, time 5 day", "value": 89.67, "unit": "%"}, {"measurement": "MEAN CORPUSCULAR HEMOGLOBIN", "setting": "120 h, time 5 day", "value": 23.07, "unit": "pg"}, {"measurement": "MEAN CORPUSCULAR HEMOGLOBIN CONCENTRATION", "setting": "120 h, time 5 day", "value": 37.53, "unit": "G/DL"}, {"measurement": "MEAN CORPUSCULAR VOLUME", "setting": "120 h, time 5 day", "value": 61.5, "unit": "fL"}, {"measurement": "MONOCYTE", "setting": "120 h, time 5 day", "value": 3.67, "unit": "%"}, {"measurement": "NEUTROPHIL", "setting": "120 h, time 5 day", "value": 6.67, "unit": "%"}, {"measurement": "NUCLEATED RED BLOOD CELLS", "setting": "120 h, time 5 day", "value": "0 /100WBC"}, {"measurement": "PLATELET COUNT", "setting": "120 h, time 5 day", "value": 1413.33, "unit": "x10E3/uL"}, {"measurement": "ALANINE AMINOTRANSFERASE", "setting": "120 h, time 5 day", "value": 57.67, "unit": "u/L"}, {"measurement": "ALBUMIN", "setting": "120 h, time 5 day", "value": 4.2, "unit": "G/DL"}, {"measurement": "ALKALINE PHOSPHATASE", "setting": "120 h, time 5 day", "value": 351.33, "unit": "u/L"}, {"measurement": "ASPARTATE AMINOTRANSFERASE", "setting": "120 h, time 5 day", "value": 77, "unit": "u/L"}, {"measurement": "BLOOD UREA NITROGEN", "setting": "120 h, time 5 day", "value": 17.67, "unit": "mg/dL"}, {"measurement": "CARBON DIOXIDE", "setting": "120 h, time 5 day", "value": 27.33, "unit": "mmol/L"}, {"measurement": "CHLORIDE", "setting": "120 h, time 5 day", "value": 103.67, "unit": "MEQ/L"}, {"measurement": "CHOLESTEROL", "setting": "120 h, time 5 day", "value": 102.33, "unit": "mg/dL"}, {"measurement": "CREATINE PHOSPHOKINASE", "setting": "120 h, time 5 day", "value": 250.67, "unit": "u/L"}, {"measurement": "CREATININE", "setting": "120 h, time 5 day", "value": 0.22, "unit": "mg/dL"}, {"measurement": "GLUCOSE", "setting": "120 h, time 5 day", "value": 153, "unit": "mg/dL"}, {"measurement": "LACTATE DEHYDROGENASE", "setting": "120 h, time 5 day", "value": 208.67, "unit": "u/L"}, {"measurement": "LIPASE", "setting": "120 h, time 5 day", "value": 12.33, "unit": "u/L"}, {"measurement": "PHOSPHORUS", "setting": "120 h, time 5 day", "value": 13.13, "unit": "mg/dL"}, {"measurement": "POTASSIUM", "setting": "120 h, time 5 day", "value": 7.47, "unit": "MEQ/L"}, {"measurement": "SODIUM", "setting": "120 h, time 5 day", "value": 145.47, "unit": "MEQ/L"}, {"measurement": "TOTAL BILIRUBIN", "setting": "120 h, time 5 day", "value": 0.17, "unit": "mg/dL"}, {"measurement": "TOTAL PROTEIN", "setting": "120 h, time 5 day", "value": 6.33, "unit": "G/DL"}, {"measurement": "URIC ACID", "setting": "120 h, time 5 day", "value": 2.3, "unit": "mg/dL"}]}
